What was measured:
[1] = target: KRas G12D/Q61H double mutant (Homo sapiens (Human), UniProt P01116, G12D/Q61H); assay: Ras GTP binding domain inhibition assay (labeled GTP); details: at 20 μM; read-out: KRas G12D Q61H % Inh.
Method in brief: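 Labelled-GTP binding: plate-captured His-KRas protein was pre-exposed to compound for 3 h at room temperature (single 20 μM point or dilution series, 1% DMSO, Tris pH 7.5/MgCl2/DTT buffer). Cy3- or Cy5-GTP was then added for 45 min. Washed wells were read for retained fluorescence to give inhibition or IC50.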

Rho-A = Rho-A (Homo sapiens (Human), UniProt P61586); assay: Rho inhibition assay (labeled GTP); format: binding; details: read-out: Rho-A % Inh.
Rac-1 = Rac-1 (Homo sapiens (Human), UniProt P63000); assay: Rac inhibition assay (labeled GTP); format: binding; details: read-out: Rac-1 % Inh.
KRas G12D mutant protein = KRas G12D mutant protein (Homo sapiens (Human), UniProt P01116, G12D); assay: Ras GTP binding domain inhibition assay (labeled GTP); details: at 20 μM; read-out: KRas G12D % Inh.
Method: The following method was developed as specific assay for KRas G12D mutant protein.
Buffer-I: • 50 mM Tris, pH 7.5 • 150 mM NaCl (optional) • 1 mM MgCl2 • 1 mM DTT. • KRas G12D mutant protein was expressed as a His-tagged protein. Purified His-KRas G12D protein was diluted in buffer-I to a final concentration of 3-10 μg/ml. • 200 μl of the diluted His-KRas G12D protein was added to a nickel coated 96 well plate and incubated overnight at 4° C. • The next day, wells were washed 3× in 200 μl of Buffer-I. • Then 200 μl of Buffer-I were added to each well in the presence of 1% DMSO. • Tested compounds were added to the protein-coated wells at a concentration of 20 μM, and incubated for 3 hours at room temperature. While performing IC50 measurements a serial dilution of all tested concentrations was prepared.
Then 22 μl of Cy3-GTP or Cy5-GTP was added to each well. The labeled GTP was incubated for 45 min. at room temperature. • Following GTP incubation, wells were washed 3× in Buffer-I, and 200 μl of Buffer-I were added to each well. • Following washes, the amount of bound labeled-GTP was measured with an Eppendorf AF2200 plate reader.

[2] = tested on: MAPK phosphorylation in PANC-1 pancreatic cancer cell line; assay: MAPK cell-based phosphorylation assay (cell-direct ELISA, EGF stimulation); details: Homo sapiens; for inhibition at 10 µM: * = tested at 10 μM
Method in brief: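 Cell-direct ELISA measured phospho-MAPK, with fluorescence read at 595 nm from AmpliFlu Red. Before fixation, PANC-1 cells starved overnight received 6 hours of compound (30 μM single dose or serial dilutions, 0.3% DMSO, 37° C), followed by 1.5 ng/ml EGF for 15 min.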

Sequence of KRas G12D/Q61H double mutant (P01116-2 other isoform, or with tags, fused parts or gaps G12D/Q61H): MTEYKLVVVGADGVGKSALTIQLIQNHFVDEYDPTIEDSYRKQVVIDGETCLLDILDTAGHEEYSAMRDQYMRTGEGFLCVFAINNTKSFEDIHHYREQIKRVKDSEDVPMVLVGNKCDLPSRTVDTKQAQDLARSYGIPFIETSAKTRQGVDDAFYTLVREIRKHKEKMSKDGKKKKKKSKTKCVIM
Sequence of KRas G12D mutant protein (P01116-2 other isoform, or with tags, fused parts or gaps G12D): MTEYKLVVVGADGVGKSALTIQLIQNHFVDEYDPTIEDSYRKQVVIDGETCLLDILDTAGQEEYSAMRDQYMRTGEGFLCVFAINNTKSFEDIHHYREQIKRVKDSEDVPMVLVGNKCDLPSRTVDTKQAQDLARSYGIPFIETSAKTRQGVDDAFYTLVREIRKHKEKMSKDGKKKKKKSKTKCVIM
Sequence of Rho-A (P61586 whole entry): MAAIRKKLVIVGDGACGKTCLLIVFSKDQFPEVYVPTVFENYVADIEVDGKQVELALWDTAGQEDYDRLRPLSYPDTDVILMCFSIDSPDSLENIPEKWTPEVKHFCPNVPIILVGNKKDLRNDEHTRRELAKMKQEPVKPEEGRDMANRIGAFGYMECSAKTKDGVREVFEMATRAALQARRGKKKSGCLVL

inhibition at 20 µM [1]	inhibition at 20 µM (Rho-A)	inhibition at 20 µM (Rac-1)	SMILES	also measured
1 to 25%	51 to 75%	76 to 100%	CN(CCc1cccc(C#N)c1)C(=O)c1csc2nc(-c3ccccn3)nc(N3CCOCC3)c12 [drawing 3677]	–
1 to 25%	51 to 75%	51 to 75%	O=C(NCCc1cncnc1)c1csc2nc(-c3ccccn3)nc(N3CCOCC3)c12 [drawing 3673]	–
1 to 25%	25 to 50%	25 to 50%	OCC1(c2ccc(-c3nc(-c4ccccn4)nc(-c4ccc(C5(CO)CC5)cc4)c3Oc3ccccc3)cc2)CC1 [drawing 3850]	–
25 to 50%	25 to 50%	25 to 50%	CC(C)(C)c1sc2c(O)nc(-c3ccccn3)nc2c1Br [drawing 3872]	–
1 to 25%	25 to 50%	25 to 50%	O=C(NCCc1ccnc(O)c1)c1csc2nc(-c3ccccn3)nc(N3CCOCC3)c12 [drawing 3672]	–
1 to 25%	25 to 50%	25 to 50%	COCC(C)Nc1nc(-c2ccccn2)nc(C(=O)NCCCc2c[nH]cn2)c1Oc1ccccc1 (centres unmarked) [drawing 3868]	–
1 to 25%	25 to 50%	51 to 75%	O=C(NCCc1cncs1)c1csc2nc(-c3ccccn3)nc(N3CCOCC3)c12 [drawing 3638]	–
25 to 50%	51 to 75%	25 to 50%	Cc1sc2c(O)nc(-c3ccccn3)nc2c1Br [drawing 3840]	–
1 to 25%	1 to 25%	1 to 25%	Nc1nc(O)c2sc(-c3cccc(C(=O)NC4CCNC4=O)c3)cc2n1 (centres unmarked) [drawing 3860]	–
1 to 25%	25 to 50%	25 to 50%	Oc1nc(-c2ccccn2)nc2c(-c3ccnn3-c3ccccn3)csc12 [drawing 3776]	–
1 to 25%	76 to 100%	76 to 100%	Cn1cc(C2CN(C(=O)c3csc4c(O)nc(-c5ccccn5)nc34)CCN2)cn1 (centres unmarked) [drawing 3666]	–
25 to 50%	51 to 75%	51 to 75%	O=C(NCCc1ccncn1)c1csc2nc(-c3ccccn3)nc(N3CCOCC3)c12 [drawing 3819]	–
25 to 50%	51 to 75%	51 to 75%	Nc1nc(-c2ccccn2)nc2c(Br)csc12 [drawing 3764]	–
25 to 50%	25 to 50%	51 to 75%	Oc1nc(-c2ccccn2)nc2c(-c3ccc(CN4CCOCC4)cc3)csc12 [drawing 3754]	–
25 to 50%	25 to 50%	25 to 50%	Oc1nc(-c2ccccn2)nc2c(-c3ccc(OC4CCCC4)cc3)csc12 [drawing 3735]	–
0%	0%	0%	NC(=O)C1CCCN1C(=O)c1cccc(-c2cc3nc(N)nc(O)c3s2)c1 (centres unmarked) [drawing 3862]	–
25 to 50%	25 to 50%	1 to 25%	Cc1sc2c(O)nc(-c3ccccn3)nc2c1C(=O)O [drawing 3801]	–
0%	25 to 50%	25 to 50%	COc1cc(OC)cc(N2CCN(C(=O)c3csc4c(O)nc(-c5ccccn5)nc34)CC2)c1 [drawing 3646]	–
51 to 75%	51 to 75%	–	CC(C)COc1ccc(-c2csc3c(O)nc(-c4ccccn4)nc23)cn1 [drawing 3749]	inhibition at 20 µM (KRas G12D mutant protein): 51 to 75%
25 to 50%	76 to 100%	51 to 75%	Oc1nc(-c2ccccn2)nc2c(-c3ccc(OC4CCOC4)cc3)csc12 (centres unmarked) [drawing 3734]	–

inhibition at 20 µM [1]	inhibition at 20 µM (Rho-A)	inhibition at 20 µM (Rac-1)	SMILES	also measured
25 to 50%	76 to 100%	76 to 100%	Cc1ccccc1N1CCN(C(=O)c2csc3c(O)nc(-c4ccccn4)nc23)CC1 [drawing 3628]	–
51 to 75%	76 to 100%	–	O=C(c1csc2c(O)nc(-c3ccccn3)nc12)N1CCNC(c2cn[nH]c2)C1 (centres unmarked) [drawing 3730]	inhibition at 20 µM (KRas G12D mutant protein): 25 to 50%
1 to 25%	25 to 50%	51 to 75%	COc1ccncc1CCNC(=O)c1csc2nc(-c3ccccn3)nc(N3CCOCC3)c12 [drawing 3669]	–
0%	51 to 75%	51 to 75%	N#Cc1ccc(N2CCN(C(=O)c3csc4c(O)nc(-c5ccccn5)nc34)CC2)cc1 [drawing 3645]	–
51 to 75%	–	51 to 75%	COc1cc(-c2csc3c(O)nc(-c4ccccn4)nc23)cnc1C(F)(F)F [drawing 3756]	inhibition at 20 µM (KRas G12D mutant protein): 51 to 75%
51 to 75%	–	–	Cc1sc2c(O)nc(-c3ccccn3)nc2c1C(=O)N1CCN(Cc2cccc(O)c2)CC1 [drawing 3829]	inhibition at 20 µM (KRas G12D mutant protein): 25 to 50%
76 to 100%	–	–	CN(C)CCOc1cccc(-c2csc3c(O)nc(-c4ccccn4)nc23)c1 [drawing 3811]	inhibition at 20 µM (KRas G12D mutant protein): 76 to 100%
51 to 75%	–	–	Oc1nc(-c2ccccn2)nc2c(-c3ccccc3C(F)F)csc12 [drawing 3755]	inhibition at 20 µM (KRas G12D mutant protein): 51 to 75%
–	–	–	Clc1csc2nc(-c3ccccn3)nc(N3CCOCC3)c12 [drawing 1113]	inhibition at 30 µM [2]: 1 to 25%
–	–	–	CC1CCN(C(=O)c2csc3c(O)nc(-c4ccccn4)nc23)CC1 [drawing 1065]	inhibition at 30 µM [2]: 1 to 25%
–	–	–	COc1ccc(-c2c(C)sc3c(O)nc(-c4nccn4C)nc23)cn1 [drawing 1361]	inhibition at 10 µM [2]: 25 to 50%
–	–	–	O=C(CCNC(=O)c1ccco1)Nc1nnc(-c2ccccn2)[nH]1 [drawing 1011]	inhibition at 30 µM [2]: 1 to 25%
–	–	–	COc1cccc(C2CN(C(=O)c3csc4c(O)nc(-c5ccccn5)nc34)CCO2)c1 (centres unmarked) [drawing 1126]	inhibition at 30 µM [2]: 1 to 25%
–	–	–	Oc1nc(-c2ccccn2)nc2c(-c3cc(Cl)cc(Cl)c3)csc12 [drawing 1192]	IC50 [2]: > 30 µM; inhibition at 10 µM [2]: 1 to 25%
–	–	–	Nc1nc(-c2ccccn2)nc(C(=O)NCCc2ccncc2)c1Oc1ccccc1 [drawing 1311]	inhibition at 10 µM [2]: 1 to 25%
–	–	–	COCc1ccc(-c2csc3c(O)nc(-c4ccccn4)nc23)cc1F [drawing 1190]	IC50 [2]: 2 to 10 µM; inhibition at 10 µM [2]: 76 to 100%
–	–	–	Cc1sc2c(O)nc(-c3ccccn3)nc2c1-c1ccccc1 [drawing 1241]	inhibition at 10 µM [2]: 76 to 100%
–	–	–	CCOCCNc1nc(-c2nccn2C)nc2sc(-c3ccccc3)c(-c3ccccc3)c12 [drawing 1335]	inhibition at 10 µM [2]: 76 to 100%
–	–	–	COC(=O)c1cc2nc(-c3ccccn3)nc(O)c2s1 [drawing 1243]	inhibition at 10 µM [2]: 25 to 50%
–	–	–	Nc1nc(-c2ccccn2)nc2scc(-c3ccccc3)c12 [drawing 1181]	inhibition at 30 µM [2]: 1 to 25%

SMILES	inhibition at 20 µM [1]	inhibition at 20 µM (Rho-A)	inhibition at 20 µM (Rac-1)	also measured
CN(C)Cc1ccc(-c2csc3c(O)nc(-c4ccccn4)nc23)cc1F [drawing 3717]	76 to 100%	–	–	inhibition at 20 µM (KRas G12D mutant protein): 76 to 100%
CCC(C)c1csc2c(OC)nc(-c3ccccn3)nc12 (centres unmarked) [drawing 3790]	51 to 75%	51 to 75%	–	inhibition at 20 µM (KRas G12D mutant protein): 25 to 50%
Oc1nc(-c2ccccn2)nc2c(-c3ccc4c(c3)CCCO4)csc12 [drawing 3774]	25 to 50%	–	25 to 50%	inhibition at 20 µM (KRas G12D mutant protein): 51 to 75%
Oc1nc(-c2ccccn2)nc2c(-c3cncc(C(F)(F)F)c3)csc12 [drawing 3784]	1 to 25%	25 to 50%	–	–
O=C(c1csc2c(O)nc(-c3ccccn3)nc12)N1CCNC(c2ccc(O)cc2)C1 (centres unmarked) [drawing 3697]	76 to 100%	–	–	inhibition at 20 µM (KRas G12D mutant protein): 51 to 75%
COCc1ccc(-c2csc3c(O)nc(-c4ccccn4)nc23)cc1F [drawing 3718]	51 to 75%	76 to 100%	–	inhibition at 20 µM (KRas G12D mutant protein): 51 to 75%
Oc1nc(-c2ccccn2)nc2c(C3CC3)csc12 [drawing 3836]	25 to 50%	–	51 to 75%	inhibition at 20 µM (KRas G12D mutant protein): 51 to 75%
Oc1nc(-c2ccccn2)nc2c(-c3cc(C(F)(F)F)ccc3F)csc12 [drawing 3783]	1 to 25%	–	25 to 50%	–
COCCNc1nc(-c2nccn2C)nc2sc(-c3ccccc3)c(-c3ccccc3)c12 [drawing 3853]	51 to 75%	–	–	inhibition at 20 µM (KRas G12D mutant protein): 76 to 100%
Cc1c(C(=O)N2CCN(c3ccccc3)CC2)sc2c(O)nc(-c3ccccn3)nc12 [drawing 3802]	51 to 75%	–	51 to 75%	–

From patent publication US10940139B2, “Compounds that interact with the Ras superfamily for the treatment of cancers, inflammatory diseases, rasopathies, and fibrotic disease” (Shy Therapeutics LLC, priority 2017, dated 2021)
